For the test, the target named is T1, SARS-CoV-2 3CLpro (3CL protease, MBP-tagged; main protease, Mpro) (Severe acute respiratory syndrome coronavirus 2, UniProt P0DTD1).
T1 construct: gene rep
Kind of test: fluorogenic protease substrate assay (ex […] / em […] nm). The class given is biochemical.

Our source for the IC50 values is PMC11940557, “Integration of metabolomics and chemometrics with in-silico and in-vitro approaches to unravel SARS-Cov-2 inhibitors from South African plants” (PLOS One, 2025).

`CC(=O)O[C@H]1[C@H](Oc2c(-c3ccc(O)c(O)c3)oc3cc(O)cc(O)c3c2=O)O[C@H](CO[C@@H]2O[C@@H](C)[C@H](O)[C@@H](O)[C@H]2O)[C@@H](O)[C@@H]1O` [2”-O-acetylrutin] yielded an IC50 of 100 nM.

Compound `O=C(O)CC(=O)OC[C@H]1O[C@@H](Oc2c(-c3ccc(O)c(O)c3)oc3cc(O)cc(O)c3c2=O)[C@H](O)[C@@H](O)[C@@H]1O` [quercetin 3-(6”-malonyl-glucoside)] yielded an IC50 of 170 nM.

`CC(=O)OC[C@H]1O[C@@H](Oc2c(-c3ccc(O)c(O)c3)oc3cc(O)cc(O)c3c2=O)[C@H](O)[C@@H](O)[C@@H]1O` [quercetin 3-O-(6“-acetyl-glucoside)] displayed an IC50 of 120 nM.

The IC50 is the concentration that inhibits the measured activity by half. A higher IC50 goes with lower potency.
